Data reported in paper PMC6026870, “Selective induction of cancer cell death by VDAC1‐based peptides and their potential use in cancer therapy” (Molecular Oncology, 2018).

Molecular target: T1, HK‐I (Homo sapiens, UniProt P19367)
T1 construct: His; made in house; host or cells: Escherichia coli BL21
T1 sequence (P19367 1-917): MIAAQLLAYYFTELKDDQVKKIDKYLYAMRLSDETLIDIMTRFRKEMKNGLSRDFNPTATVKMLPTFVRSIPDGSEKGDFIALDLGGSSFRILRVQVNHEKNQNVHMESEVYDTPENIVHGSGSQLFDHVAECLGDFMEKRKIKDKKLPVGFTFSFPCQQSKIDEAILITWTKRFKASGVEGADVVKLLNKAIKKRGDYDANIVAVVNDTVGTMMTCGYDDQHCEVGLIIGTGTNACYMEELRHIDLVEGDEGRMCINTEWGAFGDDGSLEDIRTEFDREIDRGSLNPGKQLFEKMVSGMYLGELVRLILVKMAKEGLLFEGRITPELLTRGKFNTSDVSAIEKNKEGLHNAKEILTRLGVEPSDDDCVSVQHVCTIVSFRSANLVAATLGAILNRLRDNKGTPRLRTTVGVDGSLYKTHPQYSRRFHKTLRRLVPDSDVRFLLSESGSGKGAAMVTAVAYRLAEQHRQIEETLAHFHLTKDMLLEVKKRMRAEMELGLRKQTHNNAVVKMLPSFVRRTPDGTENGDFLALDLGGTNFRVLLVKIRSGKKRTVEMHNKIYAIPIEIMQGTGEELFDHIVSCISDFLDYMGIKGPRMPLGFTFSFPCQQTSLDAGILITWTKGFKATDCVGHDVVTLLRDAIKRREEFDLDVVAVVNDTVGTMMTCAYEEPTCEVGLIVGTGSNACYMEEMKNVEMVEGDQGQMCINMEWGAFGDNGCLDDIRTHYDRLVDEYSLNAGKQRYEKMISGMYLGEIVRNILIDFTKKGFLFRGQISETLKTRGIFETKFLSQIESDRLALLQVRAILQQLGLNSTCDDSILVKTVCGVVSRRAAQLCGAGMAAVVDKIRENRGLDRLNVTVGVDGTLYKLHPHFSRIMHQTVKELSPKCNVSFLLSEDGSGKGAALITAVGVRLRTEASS
Assay: HK activity assay with purified recombinant HK‐I
Format: biochemical
Conditions: HK‐I 13 µg/ml pre‐incubated with peptide; 1 mM ATP, G6PDH‐coupled, absorbance at 340 nm (Fig. S3B)
Protocol: Human HK‐I and HK‐II were cloned into plasmid pET‐His DNA and expressed in Escherichia coli BL21 upon IPTG induction. HK was purified from lysed cells using a HiTrap nickel column (GE Healthcare). Following dialysis, the imidazole‐eluted protein was further purified using a Blue HiTrap column (GE Healthcare). HK was eluted using 10 mM glucose, 20 mM Tris/HCl (pH 8.5), 20% glycerol, and 1.5 mM glucose‐6‐phosphate. Fractions were analyzed by SDS/PAGE and tested for HK activity. The purified active fractions were combined and stored in aliquots at −80 °C.
Change in absorbance at 340 nm (NADH production) was spectrophotometrically measured following addition of 1 mM ATP and 0.05 unit·mL^−1 glucose‐6‐phosphate dehydrogenase.
Purified HK-I (13 µg/ml) was pre-incubated with the indicated concentrations of Tf-D-LP4 (●) or R-Tf-D-LP4 (○) and assayed for HK activity as described in Materials and Methods. Change in absorbance at 340 nm (NADH production) was spectrophotometrically measured following addition of 1 mM ATP, and 0.05 unit/ml glucose-6-phosphate dehydrogenase. C. Tf-D-LP4 and R-Tf-D-LP4 solubility. The peptides were dissolved to a final concentration of 5 mM in 5% DMSO and diluted to 1.1 mM in HBSS. Peptide absorbance in the supernatant was measured at 280 nm following centrifugation at 12,000g before and after 75 min incubation at 24 °C. […] Cell death was analyzed using PI and FACS analysis. […]

CC[C@H](C)[C@H](NC(=O)[C@H](Cc1ccc(O)cc1)NC(=O)[C@@H]1CCCN1C(=O)[C@H](CCCNC(=N)N)NC(=O)[C@H](Cc1c[nH]cn1)NC(=O)[C@@H](CO)NC(=O)[C@@H](Cc1c[nH]c2ccccc12)NC(=O)[C@H](NC(=O)[C@@H](Cc1c[nH]c2ccccc12)NC(=O)[C@@H](CCC(=O)O)NC(=O)[C@@H](CCCCN)NC(=O)[C@@H](CCCCN)NC(=O)[C@@H](CC(C)C)NC(=O)[C@@H](CCC(=O)O)NC(=O)[C@H](NC(=O)[C@@H](C)NC(=O)[C@H](NC(=O)[C@@H](CC(N)=O)NC(=O)[C@@H](CC(C)C)NC(=O)[C@@H](C)NC(=O)[C@@H](Cc1c[nH]c2ccccc12)NC(=O)[C@H](NC(=O)[C@@H](C)NC(=O)CNC(=O)[C@@H](CC(N)=O)NC(=O)[C@@H](CO)NC(=O)[C@@H](CC(N)=O)NC(=O)[C@@H](CCCCN)NC(=O)[C@@H](Cc1c[nH]c2ccccc12)NC(=O)[C@H](NC(=O)[C@@H](Cc1c[nH]c2ccccc12)NC(=O)[C@H](N)CCCCN)[C@H](C)O)[C@H](C)O)C(C)C)[C@H](C)O)[C@H](C)O)C(=O)N[C@@H](C)C(=O)N[C@@H](Cc1c[nH]cn1)C(=O)O [R‐Tf‐D‐LP4]
inhibition of purified HK‐I activity: inhibits HK-I activity
